In patent publication US10881667B2, “Method and composition for treating epilepsy” (City University of Hong Kong, priority 2018, dated 2021):
“Also recorded” adds a separate entry of the source.

Test system: epilepsy model mice (intrahippocampal kainic acid)
Assay: spontaneous recurrent seizures in kainic acid-induced epilepsy model mice, Racine scale accumulative scores
Format: in vivo, C57 mice
Conditions: YM022 100 nM, YF476 1 μM; for accumulative scores of spontaneous seizures / spontaneous seizures onset after drug intervention: adult male C57 mice, kainic acid model, i.p. injection, 10 μL (5 mice), 10 μL (9 mice), vs day before intervention; for seizure onsets after multiple injections: kainic acid model mice, multiple i.p. injections, 10 μL
Experimental: FIG. 1 is a series of line plots depicting the statistics of the accumulative scores of spontaneous seizures of epilepsy model mice before and after single or multiple drug interventions ([…], 1 μM, 10 μL). The 9 lines represent 9 epilepsy model mice of the experiment, and the black arrows indicate the time of drug interventions. Accumulative scores were recorded base on the quantity and severity of spontaneous seizures: 3=Racine scale stage-5 seizure; 2=Racine scale stage-4 seizure; 1=Racine scale stage-3 seizure; accumulative score is equal to sum of scores of seizures on daily basis.
FIG. 2 is a series of line plots depicting the statistics of the accumulative scores of spontaneous seizures of epilepsy model mice before and after single or multiple drug interventions (YM022, 100 nM, 10 μL). The 5 lines represent 5 epilepsy model mice of the experiment, and the black arrows indicate the time of drug interventions.
Adult male C57 mice were housed under standard conditions, with food and water available. For injection of kainic acid, mice were anesthetized with sodium pentobarbital (50 mg/kg, i.p.; Ceva Sante Animale Co., France), and atropine sulphate (0.05 mg/kg, s.c.) was administered to inhibit tracheal secretions. Kainic acid (0.3 mg/mL, 650 nL, Tocris), was stereotaxically injected into the right CA3 area of the hippocampus. Kainic acid was slowly injected over 60 s with a 2 μL microsyringe at the following stereotaxic coordinates: AP, −2.06; ML, −1.80; DV, −1.60, respectively. After injection, the needle of the syringe was maintained in situ for additional 5 min to limit reflux along the injection track. Directly after surgery, the mice were housed in clear plexiglass cages (one per cage). A special camera was placed diagonally above each cage for monitoring in both the light and dark phase. Exactly 2 weeks after kainic acid treatment, all videos were collected regularly, and three trained technicians blind to drug intervention viewed the videos. The seizure activities during 12-h epoch (00:00 a.m. to 12:00 p.m.) were rated with Racine scale (Electroencephalogr Clin Neurophysiol, 1972, 32(3): 281-294). Accumulative scores were recorded base on the quantity and severity of spontaneous seizures: 3=Racine scale stage-5 seizure; 2=Racine scale stage-4 seizure; 1=Racine scale stage-3 seizure; accumulative score is equal to sum of scores of seizures on daily basis.
The model of epilepsy induced in mice by kainic acid reproduces most of the clinical and neurophysiological features of human temporal lobe epilepsy. Unilateral intrahippocampal injection of kainic acid induced a limbic status epilepticus which may last for up to 5 hours. […]

SMILES	accumulative scores of spontaneous seizures / spontaneous seizures onset after drug intervention	seizure onsets after multiple injections
Cc1cccc(NC(=O)N[C@@H]2N=C(c3ccccc3)c3ccccc3N(CC(=O)c3ccccc3C)C2=O)c1 [YM022]	significantly reduce; also recorded: significant reduction	very rare
CNc1cccc(NC(=O)N[C@@H]2N=C(c3ccccn3)c3ccccc3N(CC(=O)C(C)(C)C)C2=O)c1 [YF476]	significantly reduce; also recorded: significant reduction	very rare
